The conditions of data set [1]: cited from earlier work.
The conditions of data set [2]: after cis-platin, ref Vermorken et al., cited from earlier work.
Another data set concerns plasma proteins. Details: method as in Van der Vijgh et al., 1986. The settings on record: ref Van der Vijgh et al., 1986; cited from earlier work.
On the set-up of data set [3]: method as in Schurig et al., 1984. The note with it: ferret, preclinical; ref Schurig et al., 1984; cited from earlier work.
The conditions of data set [4]: human, in vivo. The text has this:
Br. J. Cancer (1987), 56, 479-483 ? The Macmillan Press Ltd., 1987 Pharmacokinetics of ethylenediaminemalonatoplatinum(II) (JM-40) during phase I trial F. Elferink1, W.J.F. van der Vijgh1, W.W. ten Bokkel Huinink2, J.B. Vermorken', I. Klein1, B. Winograd', M.K.T. Knobf', G. Simonetti2, H.E. Gall', J.G. McVie2 & H.M. Pinedo' 1Department of Oncology, Free University Hospital, De Boelelaan 1117, 1081 HV Amsterdam; and 2Netherlands Cancer Institute, Antoni van Leeuwenhoek Hospital, Plesmanlaan 121, 1066 CX Amsterdam, The Netherlands. […] The drug was administered intravenously by short-term (10-60min) infusion. Doses ranged from 20 to 1,200 mgm-2. JM-40 was determined in plasma ultrafiltrate and urine by HPLC. Platinum (Pt) concentrations were determined in plasma, plasma ultrafiltrate, urine and red blood cells by atomic absorption spectrometry up to 5 days after administration of the drug. Ultrafilterable Pt could be determined up to 45 days after the infusion in one patient sampled over such a long period. […] During the first 6h 27+9% of the administered dose was excreted as JM-40. Cumulative platinum excretion in the urine amounted to 29+ 13%, 42+ 14% and 60+13% over the first 6h, 24h and 5 days, respectively. The uptake of platinum in red blood cells was limited, comprising only 0.24+0.12% of the administered dose. […] In particular the low emetogenic potential as determined in the ferret (Schurig et al., 1984) and the limited nephrotoxicity observed in dogs (Lelieveld et al., 1984) were reasons to conduct a phase I trial. […] Investigation of the pharmacokinetics during phase I clinical trials is important because it may help to design an optimal therapeutic regimen in phase II trials (Kovach, 1983). In the case of an analogue, pharmacokinetics can be compared with that of the parent compound. Furthermore, when preclinical information on animal pharmacokinetics is available human pharmacokinetics at low doses of the phase I trial may aid in escalating the dose as quickly and safely as possible (Collins et al., 1986, Van Hennik et al. 1987). Thus, clinical pharmacokinetics of JM-40 and platinum were investigated in plasma, plasma ultrafiltrate, urine and red blood cells. Figure 1 Structural platinum(II) (JM-40). formula of ethylenediaminemalonato- Patients and methods Patients and materials Pharmacokinetic studies were performed in 19 patients who received 28 cycles of JM-40 within a dose range of 20- 1,200mgm-2. The median age of the patients (6 females, 13 males) was 57 yrs (range 37-74 yrs). […] Renal function was decreased (creatinine clearance <60mlmin-1) at the start of only 3 treatment cycles. […] JM-40 was supplied by Johnson Matthey, Reading, Berkshire, UK. […]

On the set-up of data set [5]: method as in Lelieveld et al., 1984. The note with it: dogs, preclinical; ref Lelieveld et al., 1984; cited from earlier work.

Values joined by “and” are separate entries in the source; they are usually repeats but may differ in a detail not shown here. Equal values may be shown once.

As to `N.N.O=C([O-])C1(C(=O)[O-])CCC1.[Pt+2]` [carboplatin, diammine( 1, l-cyclobutanedicarboxylato)platinum(II), reference compound], the dose limiting toxicity result in data set [1] (ref Joss et al., 1984) is recorded as “myelotoxicity”.
For the molecule `N.N.[Cl][Pt][Cl]` [cis-platin, cis-diammine-dichloroplatinum(II)], the “CUE 0-6h of free Pt” value in data set [2] (1984b) is 24+5 %D. The “CUE 0-24h of free Pt” value in data set [2] (1986) was 28+4 %D.
“ethylenediaminemalonatoplatinum(II) [JM-40]”: in data set [1] (in vivo), the maximum tolerable dose is recorded as 1,200 mg m-2. Also, in the data set on plasma proteins, the “in vitro rate constant of plasma protein binding (k in vitro of free Pt)” value is 0.002 min⁻¹ and 0.0020 min⁻¹. The emetogenic potential entry in data set [3] is “low”. In addition, in data set [4], the “cumulative urinary excretion after 24 h, as Pt” value is 42+14%; the “dose m-2 vs AUC relation” value is on record as “linear pharmacokinetics”; the “half-life of Pt in RBCs over day 1-5” value is 14 + 3 days; the “time of maximum Pt levels in RBCs after start of infusion” value was 2 to 8 h. In addition, the nephrotoxicity entry in data set [5] was “limited”.

Values taken from paper PMC2001825, “Pharmacokinetics of ethylenediaminemalonatoplatinum(II) (JM-40) during phase I trial” (British Journal of Cancer, 1987).
